Results published in patent US9700516B2, “Compositions and methods for reducing overdose” (priority 2014, dated 2017).

Test: Effect of alkalinizing agents on the pH of a solution of 0.1 N HCl with a starting pH of 2.0
Type: physicochemical
Method: Various alkalinizing agents were added to a solution of 0.1 N HCl with a starting pH of 2.0 and the pH of the solution was tested at different time points.

## Cl.N=C(N)NCCC[C@H](N)C(=O)O [Arginine HCl, L-arginine-HCl]
100 mg in 200 ml, 10 min
  pH: 2.20
100 mg in 200 ml, 20 min
  pH: 2.20
100 mg in 200 ml, 30 min
  pH: 2.20
100 mg in 200 ml, 40 min
  pH: 2.20
100 mg in 200 ml, 50 min
  pH: 2.20
100 mg in 200 ml, 60 min
  pH: 2.20

## CCCCCCCCCCCCOS(=O)(=O)[O-].[Na+] [sodium lauryl sulfate]
10 mg (10.22 mg actual) in 200 ml, 0 min
  pH: 2.67
10 mg (10.22 mg actual) in 200 ml, 1 min
  pH: 2.68
10 mg (10.22 mg actual) in 200 ml, 2 min
  pH: 2.68
10 mg (10.22 mg actual) in 200 ml, 3 min
  pH: 2.68
10 mg (10.22 mg actual) in 200 ml, 4 min
  pH: 2.67
10 mg (10.22 mg actual) in 200 ml, 5 min
  pH: 2.67
10 mg (10.22 mg actual) in 200 ml, 6 min
  pH: 2.67
10 mg (10.22 mg actual) in 200 ml, 7 min
  pH: 2.67
10 mg (10.22 mg actual) in 200 ml, 8 min
  pH: 2.67
10 mg (10.22 mg actual) in 200 ml, 9 min
  pH: 2.67
10 mg (10.22 mg actual) in 200 ml, 10 min
  pH: 2.67
10 mg (10.22 mg actual) in 200 ml, 20 min
  pH: 2.67
10 mg (10.22 mg actual) in 200 ml, 30 min
  pH: 2.67
10 mg in 200 ml, 30 minute timecourse
  effect on pH of the solution: insufficient to substantially raise the pH of the solution

## CNC[C@H](O)[C@@H](O)[C@H](O)[C@H](O)CO [Meglumine, meglumine]
120 mg in 200 ml, 10 min
  pH: 2.16
120 mg in 200 ml, 20 min
  pH: 2.16
120 mg in 200 ml, 30 min
  pH: 2.16
120 mg in 200 ml, 40 min
  pH: 2.16
120 mg in 200 ml, 50 min
  pH: 2.16
120 mg in 200 ml, 60 min
  pH: 2.16

## [O]=[Mg] [MgO, magnesium oxide]
40 mg per 320 mL, 0 min
  pH: 2.01
40 mg per 320 mL, 1 min
  pH: 2.01
40 mg per 320 mL, 2 min
  pH: 2.03
40 mg per 320 mL, 3 min
  pH: 2.08
40 mg per 320 mL, 4 min
  pH: 2.10
40 mg per 320 mL, 5 min
  pH: 2.13
40 mg per 320 mL, 6 min
  pH: 2.16
40 mg per 320 mL, 7 min
  pH: 2.19
40 mg per 320 mL, 8 min
  pH: 2.22
40 mg per 320 mL, 9 min
  pH: 2.23
40 mg per 320 mL, 10 min
  pH: 2.24
40 mg per 320 mL, 20 min
  pH: 2.30
40 mg per 320 mL, 30 min
  pH: 2.33
40 mg per 320 mL, 40 min
  pH: 2.39
40 mg per 320 mL, 50 min
  pH: 2.34
40 mg per 320 mL, 60 min
  pH: 2.34
80 mg per 320 mL, 0 min
  pH: 1.99
80 mg per 320 mL, 1 min
  pH: 2.00
80 mg per 320 mL, 2 min
  pH: 2.02
80 mg per 320 mL, 3 min
  pH: 2.05
80 mg per 320 mL, 4 min
  pH: 2.06
80 mg per 320 mL, 5 min
  pH: 2.08
80 mg per 320 mL, 6 min
  pH: 2.10
80 mg per 320 mL, 7 min
  pH: 2.12
80 mg per 320 mL, 8 min
  pH: 2.13
80 mg per 320 mL, 9 min
  pH: 2.15
80 mg per 320 mL, 10 min
  pH: 2.17
80 mg per 320 mL, 20 min
  pH: 2.30
80 mg per 320 mL, 30 min
  pH: 2.40
80 mg per 320 mL, 40 min
  pH: 2.48
80 mg per 320 mL, 50 min
  pH: 2.55
80 mg per 320 mL, 60 min
  pH: 2.63
80 mg powder/200 ml, 4 min
  pH: 6.21
80 mg powder/200 ml, 5 min
  pH: 6.67
80 mg powder/200 ml, 6 min
  pH: 7.22
80 mg powder/200 ml, 7 min
  pH: 7.98
80 mg powder/200 ml, 8 min
  pH: 8.42
80 mg powder/200 ml, 9 min
  pH: 8.44
80 mg powder/200 ml, 10 min
  pH: 10.13
80 mg powder/200 ml, 20 min
  pH: 10.13
80 mg powder/200 ml, 30 min
  pH: 8.66
80 mg powder/200 ml, 40 min
  pH: 10.13
80 mg, Granular/200 ml, 4 min
  pH: 2.75
80 mg, Granular/200 ml, 5 min
  pH: 3.37
80 mg, Granular/200 ml, 6 min
  pH: 5.50
80 mg, Granular/200 ml, 7 min
  pH: 6.04
80 mg, Granular/200 ml, 8 min
  pH: 6.38
80 mg, Granular/200 ml, 9 min
  pH: 6.74
80 mg, Granular/200 ml, 10 min
  pH: 7.05
80 mg, Granular/200 ml, 20 min
  pH: 7.50
80 mg, Granular/200 ml, 30 min
  pH: 9.14
100 mg powder/200 ml, 4 min
  pH: 2.37
100 mg powder/200 ml, 5 min
  pH: 2.37
100 mg powder/200 ml, 6 min
  pH: 3.52
100 mg powder/200 ml, 7 min
  pH: 3.52
100 mg powder/200 ml, 8 min
  pH: 3.52
100 mg powder/200 ml, 9 min
  pH: 3.52
100 mg powder/200 ml, 10 min
  pH: 3.52
100 mg powder/200 ml, 20 min
  pH: 5.00
100 mg powder/200 ml, 30 min
  pH: 6.50
100 mg powder/200 ml, 40 min
  pH: 8.09
120 mg powder/200 ml, 4 min
  pH: 6.97
120 mg powder/200 ml, 5 min
  pH: 8.21
120 mg powder/200 ml, 6 min
  pH: 8.21
120 mg powder/200 ml, 7 min
  pH: 8.21
120 mg powder/200 ml, 8 min
  pH: 8.21
120 mg powder/200 ml, 9 min
  pH: 8.21
120 mg powder/200 ml, 10 min
  pH: 8.21
120 mg powder/200 ml, 20 min
  pH: 8.21
120 mg powder/200 ml, 30 min
  pH: 8.21
160 mg per 320 mL, 0 min
  pH: 1.99
160 mg per 320 mL, 1 min
  pH: 2.05
160 mg per 320 mL, 2 min
  pH: 2.14
160 mg per 320 mL, 3 min
  pH: 2.24
160 mg per 320 mL, 4 min
  pH: 2.35
160 mg per 320 mL, 5 min
  pH: 2.47
160 mg per 320 mL, 6 min
  pH: 2.60
160 mg per 320 mL, 7 min
  pH: 2.71
160 mg per 320 mL, 8 min
  pH: 2.83
160 mg per 320 mL, 9 min
  pH: 2.95
160 mg per 320 mL, 10 min
  pH: 3.07
160 mg per 320 mL, 20 min
  pH: 8.16
160 mg per 320 mL, 30 min
  pH: 9.30
160 mg per 320 mL, 40 min
  pH: 9.54
160 mg per 500 mL, 0 min
  pH: 1.98
160 mg per 500 mL, 1 min
  pH: 2.00
160 mg per 500 mL, 2 min
  pH: 2.02
160 mg per 500 mL, 3 min
  pH: 2.05
160 mg per 500 mL, 4 min
  pH: 2.07
160 mg per 500 mL, 5 min
  pH: 2.12
160 mg per 500 mL, 6 min
  pH: 2.15
160 mg per 500 mL, 7 min
  pH: 2.18
160 mg per 500 mL, 8 min
  pH: 2.22
160 mg per 500 mL, 9 min
  pH: 2.24
160 mg per 500 mL, 10 min
  pH: 2.27
160 mg per 500 mL, 20 min
  pH: 2.54
160 mg per 500 mL, 30 min
  pH: 2.62
160 mg per 500 mL, 40 min
  pH: 2.74
160 mg per 500 mL, 50 min
  pH: 2.86
160 mg per 500 mL, 60 min
  pH: 2.96
80-120 mg/200 ml powder and 80 mg granular/200 ml
  effect on pH of the solution: rapidly raise the pH of the solution to neutral or higher

## O=C([O-])[O-].[Mg+2] [Magnesium Carbonate, magnesium carbonate]
80 mg in 200 ml, 0 min
  pH: 2.73
80 mg in 200 ml, 1 min
  pH: 4.78
80 mg in 200 ml, 2 min
  pH: 6.09
80 mg in 200 ml, 3 min
  pH: 6.57
80 mg in 200 ml, 4 min
  pH: 7.44
80 mg in 200 ml, 5 min
  pH: 8.64
80 mg in 200 ml, 6 min
  pH: 8.92
80 mg in 200 ml, 7 min
  pH: 9.03
80 mg in 200 ml, 8 min
  pH: 9.09
80 mg in 200 ml, 9 min
  pH: 9.13
80 mg in 200 ml, 10 min
  pH: 9.17
80 mg in 200 ml, 20 min
  pH: 9.26
80 mg in 200 ml, 30 min
  pH: 9.26
80 mg in 200 ml, 30 minute timecourse
  pH of the solution: above 9
100 mg in 200 ml, 10 min
  pH: 3.05
100 mg in 200 ml, 20 min
  pH: 3.05
100 mg in 200 ml, 30 min
  pH: 3.05
100 mg in 200 ml, 40 min
  pH: 3.05
100 mg in 200 ml, 50 min
  pH: 3.05
100 mg in 200 ml, 60 min
  pH: 3.05
